Results published in patent US20230321064A1, “Products for Treating the JNCL Disease” (Beyond Batten Disease Foundation, priority 2020, published 2023).
Entries after “also recorded” stand apart in the source; their conditions may differ.

Columns and labels:
[1] = system: Cln3^Δex7-8 mice; assay: Neuronal cell death, cleaved caspase-3 immunohistology in brain sections; format: in vivo, mouse
Experimental: (§1) Cln3^Δex7-8 mice were obtained from the Jackson Laboratory. Control (C57BL/6J) and Cln3^Δex7-8 mice were housed 3-4 per cage in a room with a 12-h light/12-h dark cycle. Food and water were provided ad libitum. All mice used in this study were analyzed at 8 and 12 months of age and were littermates produced by crossing heterozygous Cln3^Δex7-8 mice. Only males were used for this analysis. Investigators were blinded when analyzing the data, and no randomization was necessary.
(§2) For oral administration, Trehalose was dissolved in drinking water to a final concentration of 2% and changed twice a week. Trehalose-containing water was given to Cln3^Δex7-8 mice and WT mice by spontaneous oral administration starting at 21 days of age and continuing until the day the mice were sacrificed for neuropathology studies.
(§3) Miglustat was administered in mixture with the food pellet starting at 21 days of age and continuing until the day the mice were sacrificed for neuropathology studies. Miglustat food was prepared by TestDiet using the 5V5R rodent diet (LabDiet). Two concentrations were used: 1.2 g/Kg chow (indicated as “low concentration”) and 7.2 g/Kg chow (indicated as “high concentration”) and two separate groups of Cln3^Δex7-8 mice were fed with either diet. One additional group of Cln3^Δex7-8 l mice was fed with a combination of the low-concentration Miglustat food and 2% Trehalose water.
(§4) Twelve-month-old homozygous Cln3^Δex7-8 mice and age-matched controls (WT mice) were anaesthetized with isoflurane and transcardially perfused with PBS followed by 4% buffered paraformaldehyde in 0.1 M sodium phosphate buffer, pH 7.4. Brains were subsequently removed and postfixed overnight. Before sectioning, the brains were cryoprotected in a solution containing 30% sucrose in Tris-buffered saline (TBS: 50 mM Tris, pH 7.6). Consecutive 40 μm floating coronal sections were collected in 96-well plates. Series of sections were then stained with primary antisera against CD68 (AbD
(§5) Serotec, Cat. No. MCA1957), GFAP (DAKO, Cat. No. Z0334), Subunit C of mitochondrial ATP synthase (SCMAS; Abcam, Cat. No. ab181243), or cleaved caspase 3 (Asp175) (Cell Signaling, Cat. No. 9661S) followed by either rabbit anti-rat (VectorLab) or swine anti-rabbit (DAKO) secondary antibodies, and immunoreactivity detected with Vectastain ABC (avidin-biotin) kit (Vector) and diaminobenzidine as a chromogen.
Non-overlapping images were captured, on three consecutive sections, through each region of interest. All RGB images were captured via a live video camera (JVC, 3CCD, KY-F55B), mounted onto a Zeiss Axioplan microscope using a x 40 objective and saved as JPEGs. All parameters including lamp intensity, video camera set-up and calibration were maintained constant throughout image capturing. For quantification of storage and inflammation, images were analyzed using ImageJ analysis software (NIH), using an appropriate threshold that selected the foreground immunoreactivity above background. This threshold was then applied as a constant to all subsequent images analyzed per batch of animals and reagent used to determine the specific area of immunoreactivity for each antigen in each region. Data were plotted graphically as the mean percentage area of immunoreactivity per field ±s.e.m. for each region. For quantification of cell death, images were analyzed manually and scored for the presence of apoptotic nuclei. Data were plotted graphically as the mean number of apoptotic cells per field ±s.e.m. for each region. […]

[2] = system: Cln3^Δex7-8 mice; assay: Astrocytosis, GFAP immunohistochemistry in brain sections; format: in vivo, mouse
Experimental: as §1, §2, §3, §4, §5
Non-overlapping images were captured, on three consecutive sections, through each region of interest. All RGB images were captured via a live video camera (JVC, 3CCD, KY-F55B), mounted onto a Zeiss Axioplan microscope using a x 40 objective and saved as JPEGs. All parameters including lamp intensity, video camera set-up and calibration were maintained constant throughout image capturing. For quantification of storage and inflammation, images were analyzed using ImageJ analysis software (NIH), using an appropriate threshold that selected the foreground immunoreactivity above background. This threshold was then applied as a constant to all subsequent images analyzed per batch of animals and reagent used to determine the specific area of immunoreactivity for each antigen in each region. Data were plotted graphically as the mean percentage area of immunoreactivity per field ±s.e.m. for each region. For quantification of cell death, images were analyzed manually and scored for the presence of apoptotic nuclei. Data were plotted graphically as the mean number of apoptotic cells per field ±s.e.m. for each region. All analyses were performed blind to genotype and treatment.
[…] was also quantified by performing immunohistochemistry staining of brain sections of all test and control mice using anti-GFAP antibodies.

[3] = Tissue concentrations of Trehalose (liver, brain) by LC-MS/MS; format: in vivo, mouse
Experimental: LC-MS/MS bioanalytical methodologies were developed for the analysis of Trehalose, Miglustat and glucose in mouse whole blood and brain.
Tissue samples were homogenized in 8 volumes of sterile distilled water and 1 volume of TCA (20% in water) to generate a final concentration of 2% TCA, homogenates were centrifuged at 13000 rpm for 15 min at 4° C. and the supernatant transferred to a fresh plate. At the time of analysis, 1 volume of acetonitrile containing an internal standard was added in order to match the initial chromatography conditions, samples were centrifuged at 4350 rpm for 10 min at ambient temperature, and the resultant supernatant transferred for analysis on the LC-MS/MS.
The purpose of this example was to compare the blood PK of unlabelled high doses of Trehalose after IV and PO administration, with and without Miglustat PO dosing. For the IV comparison, Trehalose was dosed as an IV bolus dose 15 min after PO dosing of Miglustat. For the PO comparison Miglustat was dosed simultaneously with Trehalose. Fasted male C57BL6/N mice were dosed as detailed in Table III: […]

[4] = system: Cln3^Δex7-8 mice; assay: Lysosomal storage in cerebellum (SCMAS staining); format: in vivo, mouse; conditions: 12 months of age
Experimental: as §1
For oral administration, Trehalose was dissolved in drinking water to a final concentration of 2% and changed twice a week. […]
as §5
Non-overlapping images were captured, on three consecutive sections, through each region of interest. […] For quantification of storage and inflammation, images were analyzed using ImageJ analysis software (NIH), using an appropriate threshold that selected the foreground immunoreactivity above background. […]

[5] = at 20° C.; cited from earlier work
[6] = 1 g/kg trehalose IV + 150 mg/kg miglustat PO, 180 min post-dose
[7] = 1 g/kg trehalose IV, 180 min post-dose

In the case of `OC[C@H]1O[C@H](O[C@H]2O[C@H](CO)[C@@H](O)[C@H](O)[C@H]2O)[C@H](O)[C@@H](O)[C@@H]1O` [Trehalose, α-D-glucopyranosyl α-D-glucopyranoside dihydrate], the “cell death (cleaved CAS-3) in the VPM/VPL region” value ([1]; 12 months of age, oral, 2% Trehalose in drinking water, Miglustat in chow (FIG. 1E), dihydrate) is reported as “partially prevented; also recorded: partially reduced”, the “programmed cell death (cleaved caspase-3 reactive cells)” value ([1]; regions analyzed: VPM/VPL, dLG, S1BF, V1 (FIGS. 1A-D), oral treatment) is reported as “effective in abating programmed cell death” and the “astroglial activation (GFAP staining) in the VPM/VPL region” value ([2]; 12 months of age, oral, Miglustat even at low doses (FIG. 3E)) is reported as “partially prevented”. For the same compound, the “astrocytosis (GFAP immunoreactivity) in the VPM/VPL” value ([2]; FIG. 3A) was “did not have any observable effects”, the “astrocytosis (GFAP immunoreactivity) in the DLG” value ([2]; FIG. 3B) was “prevented astrocytosis” and the “Concentration of Trehalose, Brain L” value [3, 6] was 10.8 ± 2.0 nmol/g. The “Concentration of Trehalose, Brain R” value [3, 6] was 10.5 ± 1.7 nmol/g, the “Concentration of Trehalose, Liver” value [3, 6] was 278.6 ± 96.6 nmol/g and the “Concentration of Trehalose, Brain L” value [3, 7] was 6.9 ± 1.9 nmol/g. For the same compound, the “Concentration of Trehalose, Brain R” value [3, 7] was 7.3 ± 0.9 nmol/g, the “Concentration of Trehalose, Liver” value [3, 7] was 167.9 ± 24.6 nmol/g and the “brain exposure of Trehalose” value ([3]; IV Trehalose in combination with oral Miglustat, 180 min post-dose) was “about 10 nmol/g”. For the same compound, the “brain exposure of Trehalose” value ([3]; IV Trehalose, 180 min post-dose) was “about 7 nmol/g”, the “brain exposure of Trehalose” value ([3]; PO Trehalose) was 2.5 nmol/g and the “increased storage in the cerebellum (SCMAS staining)” value [4] was “partially reduces this increased storage”. The Solubility [5] was “Trehalose: 68.9 g/100 g H2O at 20 °C”.
